Source: patent US20210322375A1, “COMBINATION DRUG FORMULATIONS FOR TREATING PATIENTS WITH CARDIOVASCULAR DISEASE AND ASSOCIATED CONDITIONS” (Esperion Therapeutics, Inc., priority 2018, published 2021)

Tests used:
[1] = test system: hypercholesterolemic patients; assay: Phase 2b trial: treatment-emergent adverse events and laboratory safety
Description: Study Population. Medically stable, hypercholesterolemic men and women aged 18 through 80 years with a body mass index between 18 to 45 kg/m^2 were included in the study. […] The study population included both statin-tolerant and statin-intolerant participants. Statin intolerance was defined as the inability to tolerate ≥2 statins because of muscle-related symptoms such as pain, weakness, or cramping that began or increased during statin therapy and resolved on statin discontinuation. At least 1 statin must have been administered at the lowest approved daily dose, defined as rosuvastatin 5 mg, atorvastatin 10 mg, simvastatin 10 mg, lovastatin 20 mg, pravastatin 40 mg, fluvastatin 40 mg, or pitavastatin 2 mg. Treatment with less than the lowest approved daily dose of a statin (i.e., skipping days) was considered equivalent to not tolerating 1 statin at the lowest approved daily dose.
Overall Study Design and Plan. […] Patients underwent a 5-week washout of all lipid-regulating drugs and dietary supplements and abstained from these drugs and supplements throughout the study. Patients also underwent a 5-week patient-only-blinded placebo run-in during the screening period (week −5 to week 0). This single-blind placebo run-in period was used to eliminate patients with muscle-related AEs during placebo treatment. Patients reporting new or worsening, unexplained muscle-related AEs during this run-in period were excluded from the study.
Patients were stratified (1:1) by history of statin intolerance and randomized at week 0 in a 4:4:4:1:1 ratio to once-daily treatment with capsules containing ETC-1002 120 mg, ETC-1002 180 mg, EZE, ETC-1002 120 mg plus EZE, or ETC-1002 180 mg plus EZE. […] A contract laboratory (Medpace Inc., Cincinnati, Ohio), performed all clinical laboratory tests. LDL-C was calculated using the Friedewald equation. Phlebotomy was performed after a minimum 12-hour fast (water was allowed) and only if the patient took their dose of study drug the previous day.
Safety Endpoints. The safety of ETC-1002 was assessed using treatment-emergent AEs; hematology, serum chemistry, and urinalysis laboratory values; physical examination findings; vital sign measurements; electrocardiogram (ECG) readings; weight; and ankle and waist circumference measurements. AEs were coded using the Medical Dictionary for Regulatory Activities version 16.0 and evaluated by the investigator for severity and relation to study drug. Muscle-related AEs were defined as those from the system organ class of musculoskeletal and connective tissue disorders, except for those that were not obviously muscle related. Terms included in the muscle-related AE analysis were selected from this system organ class after database lock and before unblinding.
Safety analyses were performed on the safety population, which included randomized patients who received at least 1 dose of study drug. Baseline patient characteristics were summarized for the safety population by treatment group and statin-tolerance subgroup.
Muscle-related AEs also were summarized by statin-tolerance subgroup.

[2] = test system: hypercholesterolemic patients; assay: Phase 2b randomized double-blind trial: percent change from baseline to week 12 in lipids and CRP; format: in vivo, human
Description: Brief Description of Clinical Study and Results.
Study Objectives. The primary objective was to assess the LDL-C-lowering effect of ETC-1002 monotherapy (120 mg or 180 mg daily) versus EZE monotherapy in hypercholesterolemic patients with or without statin intolerance. Secondary objectives were to characterize the dose response of ETC-1002, evaluate the impact of treatment on other lipid and cardiometabolic biomarkers, compare the LDL-C-lowering effect of ETC-1002 plus EZE combination therapy with EZE monotherapy, and characterize the safety and tolerability of the treatment regimens, including muscle-related adverse events (AEs).
Overall Study Design and Plan. […] 16, 2013 to Aug.
LDL-C was calculated using the Friedewald equation.
Efficacy Endpoints. The primary endpoint was the percent change from baseline to week 12 in calculated LDL-C in patients treated with ETC-1002 monotherapy versus those treated with EZE alone. Secondary endpoints included the dose-response relationship between ETC-1002 and the percent change in LDL-C from baseline to week 12, the percent change in LDL-C from baseline to week 12 in patients treated with ETC-1002 plus EZE versus those treated with EZE alone, and the percent change from baseline to week 12 for all treatment groups in LDL particle number, apolipoprotein B, total cholesterol, non-high-density lipoprotein cholesterol (non-HDL-C), HDL-C, HDL particle number, apolipoprotein A-I, triglycerides, very-low-density lipoprotein (VLDL) particle number, and high-sensitivity C-reactive protein (CRP). Lipoprotein particle number was measured using nuclear magnetic resonance […].
Statistical Plan and Analyses. The study was designed to include 322 patients: 92 patients in each monotherapy group and 23 patients in each combination therapy group. Sample size calculations were performed using nQuery Advisor® version 7.0 (Statistical Solutions, Cork, Ireland). The sample size of 92 patients per monotherapy group was expected to provide 90% power to detect a difference of 10% in the absolute percent change from baseline to week 12 in LDL-C between either ETC-1002 treatment group and the EZE monotherapy group. This calculation was based on a 2-sided t test at the 5% level of significance and assumed a common standard deviation of 15% in the statin-tolerant patients and 22% in the statin-intolerant patients with a dropout rate of 15%.
An analysis of covariance was used to compare each ETC-1002 treatment group with EZE monotherapy for each of the efficacy endpoints. The primary model included the effects of treatment and statin intolerance and the baseline value as a covariate. Baseline was defined as the mean of values from weeks −1 and 0 for LDL-C, non-HDL-C, total cholesterol, HDL-C, and triglycerides. For all other lipid and biomarker measures, baseline was defined as the last value before the first dose of study drug. Missing values at week 12 were imputed using the last-observation-carried-forward procedure. When LDL-C could not be calculated (i.e., triglycerides >400 mg/dL), beta-quantification measurements were used to determine LDL-C values. Least-squares (LS) means and standard errors were obtained for each treatment group; differences in LS means and p-values were obtained for the treatment comparisons. Graphical methods (e.g., normal probability plot and histogram of residuals, plot of residuals vs. predicted values) or analytical methods (e.g., Shapiro-Wilk test), or both, were used to assess the model assumptions. Because of departures from normality observed in the parameters of triglycerides, CRP, and VLDL particle number, nonparametric analyses were performed for these measures, with p-values obtained from the Wilcoxon rank-sum test and median values presented.
Percent changes from baseline in LDL-C also were summarized by statin-tolerance subgroup. […]

[3] = EZE 10 mg daily, safety population n = 99
[4] = statin-intolerant patients, EZE 10 mg, n = 51
[5] = statin-tolerant patients, EZE 10 mg, n = 48
[6] = EZE 10 mg daily, mITT n = 98, LS mean ± SE
[7] = EZE 10 mg daily, mITT n = 98, median (interquartile range)

## O=C1[C@H](CC[C@H](O)c2ccc(F)cc2)[C@@H](c2ccc(O)cc2)N1c1ccc(F)cc1 [EZE, (3R,4S)-1-(4-fluorophenyl)-3-[(3S)-3-(4-fluorophenyl)-3-hydroxypropyl]-4-(4-hydroxyphenyl)azetidin-2-one, reference compound]
[1]; EZE
  ALT or AST, or both, increased >3 times the upper limit of normal at any measurement: 1 patient
  Serious AE reported (event): transient ischemic attack
[1]; [3]
  ALT increased, patients: 1 (1%) n (%)
  AST increased, patients: 0 n (%)
  Any AE(s), patients: 53 (54%) n (%)
  Arthralgia, patients: 4 (4%) n (%)
  Back pain, patients: 8 (8%) n (%)
  Blood CK increased, patients: 1 (1%) n (%)
  Constipation, patients: 1 (1%) n (%)
  Discontinuation due to AE(s), patients: 8 (8%) n (%)
  Headache, patients: 1 (1%) n (%)
  Myalgia, patients: 6 (6%) n (%)
  Nasopharyngitis, patients: 4 (4%) n (%)
  Serious AE(s), patients: 1 (1%) n (%)
  Study drug-related AE(s), patients: 19 (19%) n (%)
  Upper respiratory tract infection, patients: 1 (1%) n (%)
  Urinary tract infection, patients: 6 (6%) n (%)
[1]; EZE alone
  Myalgia, patients, entire study population: 6%
[1]; [4]
  Any muscle-related AE, patients: 9 (18%) n (%)
  Muscle spasms, patients: 1 (2%) n (%)
  Muscle-related AE leading to discontinuation, patients: 5 (10%) n (%)
  Muscular weakness, patients: 1 (2%) n (%)
  Musculoskeletal chest pain, patients: 0 n (%)
  Musculoskeletal stiffness, patients: 1 (2%) n (%)
  Myalgia, patients: 6 (12%) n (%)
  Pain in extremity, patients: 3 (6%) n (%)
  Sensation of heaviness, patients: 1 (2%) n (%)
[1]; [5]
  Any muscle-related AE, patients: 3 (6%) n (%)
  Muscle spasms, patients: 2 (4%) n (%)
  Muscle-related AE leading to discontinuation, patients: 1 (2%) n (%)
  Musculoskeletal pain, patients: 1 (2%) n (%)
  Myalgia, patients: 0 n (%)
[2]; [6]
  Apolipoprotein A-I, percent change from baseline to week 12: 2.0 ± 1.1%
  Apolipoprotein B, percent change from baseline to week 12: −15.2 ± 1.2%
  HDL particle number, percent change from baseline to week 12: 6.7 ± 1.3%
  HDL-C, percent change from baseline to week 12: 5.0 ± 1.4%
  LDL particle number, percent change from baseline to week 12: −12.7 ± 1.7%
  LDL-C, percent change from baseline to week 12: −21.2 ± 1.3%
  Non-HDL-C, percent change from baseline to week 12: −18.7 ± 1.2%
  Total cholesterol, percent change from baseline to week 12: −14.3 ± 0.9%
[2]; [7]
  CRP, percent change from baseline to week 12: −10.5 (59.0) %
  Triglycerides, percent change from baseline to week 12: −7.0 (34.9) %
  VLDL particle number, percent change from baseline to week 12: −12.6 (63.4) %
[2]; EZE alone
  CRP reduction: 10%
[2]; EZE alone, week 12
  HDL-C increase: 5%
